# According to US4255444A, “4-Hydroxy-2-pyrone derivatives having antihyperlipaemic activity” (Sankyo Company Limited, priority 1978, dated 1981):
# Target: cholesterol biosynthesis (crude enzyme extracted from rat liver)
# Experiment: Inhibition of cholesterol biosynthesis by crude enzyme extracted from rat liver (radioactive acetic acid incorporation, digitonin precipitation)
# Format: biochemical
# Conditions: 37° C., 60 minutes, compound added at beginning of reaction
# Procedure: Crude enzyme extracted from rat liver was reacted with radioactive acetic acid at 37° C. for 60 minutes. The radioactive cholesterol thus biosynthesized was saponified and precipitated with digitonin, and the radioactivity was measured to determine the amount of cholesterol produced. The reaction was repeated, but adding one of the compounds of the invention listed in the following Table at the beginning of the reaction, and the amount of cholesterol biosynthesized was again determined, to give a quantitative measurement of the inhibitory effect of the compounds of the invention. The concentrations (μg/ml) of the compounds of the invention and of a known compound (clofibrate) which gave approximately 50% inhibition of cholesterol biosynthesis are reported in the following Table as I50 values [see Bricker et al, The Journal of Biological Chemistry, 247, 4914 (1972)]. The compounds of the invention are identified in the following Table by the numbers heretofore assigned to them.
row,SMILES,I50 (concentration giving approximately 50% inhibition of cholesterol biosynthesis) [µg/mL]
1,"Cc1ccc2ccccc2c1CCC1CC(O)CC(=O)O1 (centres unmarked) [Compound No. 1, 4-Hydroxy-6-[2-(2-methyl-1-naphthyl)ethyl]-3,4,5,6-tetrahydro-2H-pyran-2-one]",0.75
2,"CC(C)(Oc1ccc(Cl)cc1)C1CC(O)CC(=O)O1 (centres unmarked) [Compound No. 4, 6-[1-(4-Chlorophenoxy)-1-methylethyl]-4-hydroxy-3,4,5,6-tetrahydro-2H-pyran-2-one]",21.3
3,"O=C1CC(O)CC(CCc2cccc3ccccc23)O1 (centres unmarked) [Compound No. 3, 4-Hydroxy-6-[2-(1-naphthyl)ethyl]-3,4,5,6-tetrahydro-2H-pyran-2-one]",6.4
4,"CCOC(=O)C(C)(C)Oc1ccc(Cl)cc1 [Clofibrate, reference compound]",250 to 300
5,"CC(Oc1ccccc1)C1CC(O)CC(=O)O1 (centres unmarked) [Compound No. 2, 4-Hydroxy-6-(1-phenoxyethyl)-3,4,5,6-tetrahydro-2H-pyran-2-one]",42.3
